Experimental data taken from patent publication US6407137B2, “Dopamine analog amide” (Protarga, Inc., priority 1988, dated 2002).
Several values for one entry are separate records, joined by “and”; a condition that tells them apart may be missing. Identical values can stand only once. Entries after “also recorded” stand apart in the source; their conditions may differ. Like-named read-outs stand apart in the source and are kept apart here.

What was measured:
[1] = Circling behavior in rats with unilateral nigrostriatal lesions; type: in vivo; settings: for AVERAGE ROTATION SCORES (Rotations/minutes) Contralateral / AVERAGE ROTATION SCORES (Rotations/minutes) Ipsilateral: 30-min period; for circling behavior (in words): rats with nigrostriatal lesions, i.p.
Method: Dopamine agonists such as apomorphine and amphetamine cause circling behavior in animals with nigrostriatal lesions.
Unilateral nigrostriatal lesions in rats were produced by administering unilateral injections of 6-OH dopamine into the nigrostriatum pathway. Seven days later, these animals were i.p. injected with the test drugs and circling behavior was recorded as rotations per minute during a 30-min period in the test apparatus, Ungerstedt U. and Arbathnott G. W., Brain Res. 24, 485-493 (1970).

[2] = Test for tolerance: food consumption during long-term administration; type: in vivo, mice; settings: for tolerance: food intake
Method: The effect of long-term administration of compound 8739 on the pattern of food consumption of mice was compared to the long-term effects of the administration of amphetamine. Daily i.p. injections of compound 8739 (20 mg/kg) were given to test animals and daily i.p. injections of amphetamine (2 mg/kg) were given to control animals for 21 days. 24 hours after the first injection and about every five days after that, the animals were food-deprived for 24 hours with water freely available, and then were tested for food consumption for one-hour beginning at five minutes after receiving their daily injection.
FIG. 4 plots the percent decrease in food consumption versus time.

[3] = animal tests, background; cited from earlier work
[4] = Brain penetration index (BPI) determination, brain uptake relative to liver; type: in vivo, male balb C mice; settings: for BPI Value (%): BPI=[brain]/[liver]x100, 5 minutes after s.c. injection; for crossing of the blood brain barrier (in words): variations of the carrier; for brain uptake / BPI relative to dopamine: compared with dopamine
Description: A brain penetration index (BPI) determination was used as a criterion for measuring the capacity of a compound to cross the blood brain barrier. Shashoua, V. E., Jacob, J. N., Ridge, R., Campbell, A. and Baldessarini, R. J., J. Med. Chem. 27, 659 (1984). The BPI is a measure of the uptake of a compound by the brain relative to its uptake by the liver. The liver is chosen as a reference since it is an organ which has no barrier to diffusable molecules present in the blood. Moreover, even if subcutaneous injections are used, the injected material tends to remain largely at the site of the injection and slowly diffuse into the circulation. Therefore, the amount of material in the liver will reflect the amount available rather than the initial dose injected.
Measurements of the quantity of the drug present in the brain and liver were measured at five minutes after a subcutaneous injection and were used to calculate the BPI, the equation being: […]
For these measurements, compound 8739 was synthesized from ^14C-labeled dopamine. Thirty μCi of dopamine labeled hydrochloride was mixed with 0.1 mg of unlabeled dopamine hydrobromide and reacted with a two-fold excess of DHA anhydride. The reaction was run overnight; the product was then evaporated to dryness and dissolved in ethanol. The compound was identified as 8739 by its migration properties on thin-layer chromatography using chloroform:methanol as one solvent and dimethylformamide (DMF) as the other. The migration properties were equivalent to those of the unlabeled product.
^14C-labeled 8739 was dissolved in 15% propylene glycol in 0.1 M NaHCO3 and then injected subcutaneously (s.c.) into male balb C mice (20±2 g). After 5 minutes the animals were sacrificed by cervical fracture and the brain and liver were dissected out, weighed and homogenized in 8 and 10 ml of Brain Protein Solvent (BPS) buffer, respectively [BPS=2% sodium dodecyl sulfate in 0.03 M Tris, 6 M urea, pH 7.6, 0.01 M EDTA and 0.14 N NaCl]. Aliquots were then counted for ^14C content in 10 ml of a liquid scintillation fluid, Liquiscent (National Diagnostic Company, Somerville, N.J.) using a Beckman liquid scintillation counter. The ^14C counts were then used to calculate the total quantity of compound 8739 present in the brain per gram of tissue as compared to that in the liver. The ratio of the amount in the brain as a percent of that present in liver was determined.

[5] = Open-field motor activity measurement; type: in vivo, balb-c mice; settings: for changes in open-field activity: administered at the same dose as compound 8739
Method: The effect of compound 8739 on general motor activity was determined. The general motor activity of balb-c mice was measured in a Stoelting electronic activity monitor apparatus during a 90-min period following an intraperitoneal injection of the compound as a solution in 15% propylene glycol in 0.1 M NaHCO3. A detailed description of the apparatus is reported in Stewart R. J., Campbell A., Spark G. and Balessarini R. J. Psychopharmacol. 60, 281 (1979).
The test group (six mice) received an i.p. injection of the drug in a vehicle (15% propylene glycol in 0.1 M NaHCO3, a total volume of between about […].). The six control mice received the same volume of vehicle, but no drug. The results (Shown in FIG. 1,) are expressed as the percent decrease in open field activity for the test group versus the control group. […] The response was dose dependant with higher doses of compound 8739 resulting in a greater decrease in general motor activity.
The effects of the mode of delivery of Compound 8739 (oral vs. i.p.) on the general open-field activity of mice (n=6) was assessed. […] A 40-50% decrease in activity occurred when either delivery method was employed.

[6] = reported in the literature; cited from earlier work
[7] = previous reports, Chan and Fishman, SCIENCE (1978); cited from earlier work
[8] = Food consumption measurements; type: in vivo, balb-c mice; settings: for activity as an appetite-suppressant (in words): variations of the carrier
Method: The effect of compound 8739 on food consumption was determined for balb-c mice that were food deprived for 24 hr, with water freely available. The six test mice were given an i.p. injection of compound 8739 as a solution in 15% propylene glycol in 0.1 M NaHCO3, a total volume of between about 0.1-0.3 ml. The six control mice received the same volume of vehicle, but no drug. The quantity of “mouse chow” eaten during the 60-min period following the injections was determined. The results, also shown in FIG. 1, are expressed as the percent decrease in food consumption for the test group versus the control group. […] The decrease was dose dependent, with higher doses of compound 8739 causing greater decrease in food intake. The same experiment was conducted using oral administration of compound 8739.

[9] = Pattern of distribution of 14C-labeled 8739 in membranes of the central nervous system (P1/P2 fractions); type: in vivo, mice
Method: The fraction P1 containing nuclear and cell membrane components was sedimented for 5 min at 2,500 rpm at 0° C. The supernatant containing the crude synaptosomal fraction was next centrifuged at 13,000 rpm for 30 min to yield a pellet containing the crude synaptosomal fraction (P2). P1 and P2 were then dissolved in BPS, and the amount of label and protein in each fraction was determined.

[10] = Self-stimulation test (electrodes in lateral hypothalamus); type: in vivo; settings: rats
Description: A self-stimulation test has been used to measure the capacity of a given pharmacological agent to inhibit rats from receiving self-induced electrical stimuli via electrodes implanted in their brains (lateral hypothalamus). Stellar J. R. and Stellar E., The Neurobiology of Motivation and Reward, Springer-Verlag, New York, 1985. Animals will press levers to receive a pulse of current from the implanted electrode at a rate dependent upon the quantity of current that is being delivered as a reward. […] R.). […] A plot of the log of the frequency of the delivered pulses vs. the rate of level press for an animal gives the self-stimulation reward curve. Injections of drugs which have a neuroleptic-type or tranquilizing effect can depress the rate of self-stimulation, shifting the response to higher current deliveries. Pemozide can give a depressed rate by about 90%. […] The animal continues to press the lever at the rate equivalent to a non-injected control or one receiving the vehicle alone.

[11] = Test for tolerance: open field activity during daily injections; type: in vivo, mice; settings: 20 mg/kg i.p. daily for 21 days
Method: The effects of daily i.p. injections of compound 8739 at a dose of 20 mg/kg on open field activity and food consumption was tested to determine whether tolerance to the drug was induced over time. The open field activity of six test mice and six control mice was monitored for five days. Then, the test mice were given i.p. injections of the drug in a vehicle and the control mice were given i.p. injections of the vehicle only. This regimen was carried out for a 21 day test period. At the end of the 21 days, the vehicle alone was given daily to both test and control mice and open field activity and food consumption was monitored for an additional six days.
FIG. 3 plots the percent decrease in open field activity of the test mice (n=6) as compared to the controls (n=6). […] Upon initation of injections, there was a 30% to 60% decrease in open field activity. […] Beginning at day 22 and daily until day 27, vehicle alone was given to both groups.

D-1 dopamine receptors = test: Dopamine receptor binding assay (D-1)
Sequence of D-1 dopamine receptors (P21728 whole entry): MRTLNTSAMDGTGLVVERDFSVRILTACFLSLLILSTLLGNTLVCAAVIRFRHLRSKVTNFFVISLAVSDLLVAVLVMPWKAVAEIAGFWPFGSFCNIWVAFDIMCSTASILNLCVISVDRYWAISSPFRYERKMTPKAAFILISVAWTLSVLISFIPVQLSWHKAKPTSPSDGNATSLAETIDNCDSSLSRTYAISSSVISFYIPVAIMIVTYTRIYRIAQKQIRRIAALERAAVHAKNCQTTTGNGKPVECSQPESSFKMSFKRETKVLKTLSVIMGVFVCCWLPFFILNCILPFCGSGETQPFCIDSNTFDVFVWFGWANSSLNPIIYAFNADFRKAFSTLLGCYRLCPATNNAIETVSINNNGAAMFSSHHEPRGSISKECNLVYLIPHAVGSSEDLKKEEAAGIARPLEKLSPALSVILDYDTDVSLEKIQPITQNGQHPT

D-2 dopamine receptors = D-2 dopamine receptors (Homo sapiens, UniProt P14416); test: Dopamine receptor binding assay (D-2)
Sequence of D-2 dopamine receptors (P14416 whole entry): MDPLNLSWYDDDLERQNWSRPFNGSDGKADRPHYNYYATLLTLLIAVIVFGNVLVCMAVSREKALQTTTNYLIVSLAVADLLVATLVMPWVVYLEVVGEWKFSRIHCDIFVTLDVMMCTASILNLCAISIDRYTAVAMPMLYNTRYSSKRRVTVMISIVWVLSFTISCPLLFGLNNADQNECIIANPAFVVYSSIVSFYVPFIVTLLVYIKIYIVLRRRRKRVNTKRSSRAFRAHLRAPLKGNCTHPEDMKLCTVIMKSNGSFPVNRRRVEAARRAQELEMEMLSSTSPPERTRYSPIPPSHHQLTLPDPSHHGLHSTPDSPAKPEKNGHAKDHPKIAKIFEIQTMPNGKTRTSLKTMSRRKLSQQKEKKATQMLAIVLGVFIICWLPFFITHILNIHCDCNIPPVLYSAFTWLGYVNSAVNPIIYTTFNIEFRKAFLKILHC

Swelling of the brain = test: Swelling of the brain
Description: Another favorable property of compound 8739 was unexpected. […] Chan, P. H., Fishman, R. A., SCIENCE, Vol. 20, 358-360 (1978).

[12] = in vivo
Description: Many of the undesirable side effects of amphetamines were absent. […] Failure to induce tolerance was unexpected.

[13] = 14C-labeled, s.c. injection, mice, 5 minutes after injection
[14] = 14C-labeled 8739 s.c., mice, brain, 30 min

CC(N)Cc1ccccc1 (stereo not drawn) [Amphetamine]
AVERAGE ROTATION SCORES (Rotations/minutes) Contralateral ([1]; 3.0 mg/kg i.p.): 0.4 Rotations/minutes | AVERAGE ROTATION SCORES (Rotations/minutes) Ipsilateral ([1]; 3.0 mg/kg i.p.): 2.5 Rotations/minutes | AVERAGE ROTATION SCORES (Rotations/minutes) Contralateral ([1]; 5.0 mg/kg i.p.): 0.92 Rotations/minutes | AVERAGE ROTATION SCORES (Rotations/minutes) Ipsilateral ([1]; 5.0 mg/kg i.p.): 3.32 Rotations/minutes | circling behavior (in words) [1]: circling rapidly to the ipsilateral lesion side | decrease in food intake over time ([2]; 2 mg/kg i.p. daily for 21 days): virtually disappeared after 15 days | tolerance ([2]; 2 mg/kg i.p. daily for 21 days): complete tolerance | time within which tolerance develops [3]: 3 to 15 days

NCCc1ccc(O)c(O)c1 [Dopamine]
brain penetration index (BPI) [4]: about 4 | BPI Value (%) [4]: 4% | changes in open-field activity [5]: No significant changes

O=C[C@H](O)[C@@H](O)[C@H](O)[C@H](O)CO [D-glucose]
BPI Value (%) [6]: 33% | BPI index [6]: 33

CCC=CCC=CCC=CCC=CCC=CCC=CCCC(=O)O [carrier molecule (T), 4, 7, 10, 13, 16, 19 docosahexa-enoic acid, reference compound]
changes in open-field activity [5]: No significant changes | swelling of the brain [7]: induce swelling of the brain

CCCCCCCCCCCCCCCCCCCCCC(=O)NCCc1ccc(O)c(O)c1
crossing of the blood brain barrier (in words) [4]: does not effectively cross the blood brain barrier | activity as an appetite-suppressant (in words) [8]: essentially inactive

CC/C=C\C/C=C\C/C=C\C/C=C\C/C=C\C/C=C\CCC(=O)NCCc1ccc(O)c(O)c1 [Compound 8739]
Brain (cpm/g) [4, 13]: 1305 cpm/g and 1297 cpm/g | Liver (cpm/g) [4, 13]: 4300 cpm/g and 3931 cpm/g | BPI Value (%) [4]: 30% and 33% | brain uptake / BPI relative to dopamine [4]: eight times that of dopamine | brain uptake / BPI relative to dopamine ([4]; listed as compound 8739): over eight-fold higher | P1 (Nuclear and Cell Membrane Fraction), CPM/mg Protein after 30 min of Uptake [9, 14]: 4.19 CPM/mg Protein and 2.7 CPM/mg Protein | P2/P1 [9, 14]: 2.9 and 1.9 and 2.1 | factor by which uptake into P2 was greater than into P1, average ([9]; average of the experiments of Table II): 2.3 | percent decrease in open field activity, test group versus control group ([5]; i.p. injection, mice, 90-min period): 40-50% | decrease in open-field activity ([5]; oral delivery, mice n=6): 40-50% | activity when given orally compared with injection ([5]; oral vs. i.p.): as active when ingested as when injected; also recorded: without any apparent loss in efficacy | food consumption, oral administration compared with i.p. ([8]; oral administration, same experiment): The results were the same | AVERAGE ROTATION SCORES (Rotations/minutes) Contralateral ([1]; 34 mg/kg i.p.): 0.05 Rotations/minutes | AVERAGE ROTATION SCORES (Rotations/minutes) Ipsilateral ([1]; 34 mg/kg i.p.): 0.08 Rotations/minutes | AVERAGE ROTATION SCORES (Rotations/minutes) Contralateral ([1]; 51 mg/kg i.p.): 0.12 Rotations/minutes | AVERAGE ROTATION SCORES (Rotations/minutes) Ipsilateral ([1]; 51 mg/kg i.p.): 0.08 Rotations/minutes | circling behavior (in words) [1]: failed to produce an effect; also recorded: did not evoke this behavior | circling behavior (in words) ([1]; listed as compound 8739): do not result | effect on self-stimulation parameters (reward, motor aspect, motivation) [10]: no effect on either the reward or the motor aspect; also recorded: do not result | tolerance [11]: no indication of tolerance | tolerance ([11]; listed as compound 8739): no tolerance was induced | tolerance ([2]; 20 mg/kg i.p. daily for 21 days): no tolerance had developed | binding to D-1 dopamine receptors (D-1 dopamine receptors): does not bind | binding to D-2 dopamine receptors (D-2 dopamine receptors): does not bind | swelling of the brain (Swelling of the brain): did not induce any swelling | effects on motor function or motivation [12]: failed to demonstrate any diverse effects | stereotypy [12]: failed to induce

CCCCCCCCCCCC(=O)NCCc1ccc(O)c(O)c1
crossing of the blood brain barrier (in words) [4]: does not effectively cross the blood brain barrier | activity as an appetite-suppressant (in words) [8]: completely inactive

CN1CCc2cccc3c2[C@H]1Cc1ccc(O)c(O)c1-3 [Apomorphine]
AVERAGE ROTATION SCORES (Rotations/minutes) Contralateral ([1]; 0.1 mg/kg i.p.): 4.8 Rotations/minutes | AVERAGE ROTATION SCORES (Rotations/minutes) Ipsilateral ([1]; 0.1 mg/kg i.p.): 0.1 Rotations/minutes | AVERAGE ROTATION SCORES (Rotations/minutes) Contralateral ([1]; 0.5 mg/kg i.p.): 13.7 Rotations/minutes | AVERAGE ROTATION SCORES (Rotations/minutes) Ipsilateral ([1]; 0.5 mg/kg i.p.): 0 Rotations/minutes | circling behavior (in words) [1]: rapid circling behavior to the contralateral side of the lesion
